The record followed here is ChEMBL document CHEMBL5727136, “Inhibitors of RPN11” (2018).

Experiment [1] in a line: (§1) Biochemical Assay: In brief, this Rpn11 bioassay employs a fluorescent polarization readout based on the ability of the 26S proteasome to cleave the protein substrate including four tandem ubiquitin proteins fused to a peptide having a unique cysteine labeled with a fluorophore. Cleavage of this substrate by Rpn11 at the junction between the fourth ubiquitin and the peptide, releases the low molecular weight fluorescent peptide. Accordingly, inhibition of fluorescence correlates with inhibition of Rpn11. Inhibition is reported as the half maximal inhibitory concentration (IC50) for the candidate compound.The catalytic JAB1/MPN/Mov34 metalloenzyme (JAMM) motif of Rpn11 is found in 7 different human proteins including the Csn5 subunit of the COP9 signalosome, AMSH, AMSH-LP, the BRCC36 subunit of BRISC, MPND, and MYSM1. All of these enzymes cleave the isopeptide linkage that joins ubiquitin (or the ubiquitin-like protein Nedd8 in the case of Csn5) to a second molecule of ubiquitin or to a substrate. The conserved JAMM domain has the consensus sequence EXnHS/THX7SXXD, in which the histidine (His) and aspartic acid (Asp) residues bind the Zn2+ ion and the fourth coordination site is occupied by a water molecule that is engaged in hydrogen bonding with a conserved glutamic acid (Glu). The Zn2+ acts as a Lewis acid and increases the nucleophilic character of the bound water enough to allow hydrolytic cleavage of the isopeptide bond.

A short description of experiment [2]: as §1. This is another data set of the same source.
A short description of experiment [3]: as §1. The source holds these as a separate data set.

Molecules are shown by their SMILES.

As for `O=C(NCCc1ccco1)c1ccnc2c(S)cccc12`, in experiment [1], the IC50 was found to be 2.9 µM.

In experiment [1], `O=C(NCc1cccnc1)c1cnc2c(S)cccc2c1` displayed an IC50 of 3.52 µM.

`O=C(NCc1cccs1)c1cnc2c(S)cccc2c1`: the IC50 was 1.3 µM in experiment [1], 16 µM in experiment [2] and 0.8 µM in experiment [3].

The compound `O=C(NCc1ccc(N2CCOCC2)cc1)c1cnc2c(S)cccc2c1` gave an IC50 in experiment [3] of 0.8 µM.

On to `NC(=O)c1cnc2c(S)cccc2c1`, for which the IC50 in experiment [1] is 1.2 µM; in experiment [3] it was 1 µM.

Consider `CNC(=O)c1cnc2c(S)cccc2c1`, for which the IC50 in experiment [1] came to 4.8 µM; in experiment [2] it was 68 µM.

On to `O=C(NCc1nccs1)c1cnc2c(S)cccc2c1`, for which, in experiment [1], half-maximal inhibition (IC50) required 7.8 µM.

As for `O=C(NCCc1ccco1)c1cnc2c(S)cccc2c1`, the figures for the half-maximal inhibitory concentration (IC50) in experiment [1] and in experiment [2] were 1.7 µM and 6.9 µM, respectively.

`O=C(NCc1ccccn1)c1cnc2c(S)cccc2c1` had a concentration for half-maximal inhibition (IC50) in experiment [1] of 16.7 µM.

As to `O=C(NCc1ccco1)c1cnc2c(S)cccc2c1`, the 50% inhibitory concentration (IC50) in experiment [1] and in experiment [3] was 0.9 µM in each case.

For the compound `O=C(NCCN1CCOCC1)c1cnc2c(S)cccc2c1`, the concentration for half-maximal inhibition (IC50) in experiment [1] was found to be 25.4 µM; in experiment [3], 6.4 µM.

For `O=C(NCCc1cccs1)c1cnc2c(S)cccc2c1`, the values for the half-inhibitory concentration (IC50) in experiment [1], in experiment [2] and in experiment [3] were 1.3 µM, 4 µM and 0.3 µM, respectively.

`O=C(NCC1CCCO1)c1cnc2c(S)cccc2c1` (stereo unspecified): the half-inhibitory concentration (IC50) in experiment [1] amounted to 6.8 µM; in experiment [2] it was 41.3 µM; in experiment [3], 4.6 µM.

In experiment [1], `O=C(Nc1nccs1)c1cnc2c(S)cccc2c1` returned an IC50 of 3.3 µM.

`O=C(NCCc1nccs1)c1cnc2c(S)cccc2c1` had a concentration for half-maximal inhibition (IC50) in experiment [2] of 30 µM.

Consider `O=C(NCc1ccc2c(c1)OCO2)c1cnc2c(S)cccc2c1`, for which the 50% inhibitory concentration (IC50) in experiment [1] was < 0.2 µM; in experiment [2] it was 7 µM; in experiment [3] it was 0.9 µM.

For the compound `O=C(NCc1ccc(F)cc1)c1cnc2c(S)cccc2c1`, the IC50 was found to be 0.85 µM in experiment [1] and 18 µM in experiment [2].

As for `COc1ccc(CNC(=O)c2cnc3c(S)cccc3c2)cc1`, the half-inhibitory concentration (IC50) is 0.6 µM in experiment [1] and 0.5 µM in experiment [2].

`O=C(NCc1ccccc1)c1cnc2c(S)cccc2c1`: the figures for the half-maximal inhibitory concentration (IC50) in experiment [1], in experiment [2] and in experiment [3] were 15 µM, 11 µM and 1.1 µM, respectively.
